Assay results from US20200397700A1, “GRANULAR COMPOSITION, PRODUCTION METHOD FOR GRANULAR COMPOSITION, AND DISSOLUTION PROPERTY IMPROVEMENT METHOD FOR GRANULAR COMPOSITION” (NIPPON SHINYAKU CO., LTD., priority 2018, published 2020).
Structures can show the parent of a compound that is named as a salt.

Assay: Dissolution test, Japanese Pharmacopoeia 17th Edition, paddle method, water
Format: physicochemical
Conditions: for dissolution rate of the mixture with an excipient after compression molding versus the mixture not compression molded: drug mixed with an excipient, compression molded in the same manner as in this embodiment
Protocol: With respect to the granular compositions of Examples 1 to 8, and Comparative Examples 1 to 8 prepared as described above, a dissolution test was performed. The dissolution test was performed according to the dissolution test method of the Japanese Pharmacopoeia, Seventeenth Edition. By using a dissolution testing device (NTR-6000 series, manufactured by Toyama Sangyo Co., Ltd.), the dissolution test was performed by a paddle method using water as a dissolution test liquid. At this time, the volume of the dissolution test liquid was set to 900 mL, the temperature of the dissolution test liquid was set to 37 ±0.5° C., and the paddle rotation rate was set to 50 rpm. With respect to the respective Examples and the respective Comparative Examples, the total amount was added to the dissolution test liquid, and the dissolution test liquid was sampled at 5, 10, 15, 30, 45, 60, 90, and 120 minutes after the start of the test, and filtered through a 0.45-μm filter (manufactured by Whatman GE Healthcare Biosciences), and then, the dissolution rate of Compound (I) was measured using high performance liquid chromatography.
FIGS. 5 to 9 show the time course of the dissolution rate of Compound (I) in the granular compositions of Examples 1 to 5, respectively, and also show the time course of the dissolution rate of Compound (I) in Comparative Examples 1 to 5, respectively. […] In FIGS. 5 to 11, the vertical axis represents the dissolution rate (unit: %) and the horizontal axis represents a time (unit: min). The solid lines E1 to E8 represent the cases of Examples 1 to 8, respectively, and the broken lines C1 to C8 represent the cases of Comparative Examples 1 to 8, respectively.

Row | dissolution property of Compound (I) (in a granule obtained by a fluidized bed granulation method) | dissolution rate of the mixture with an excipient after compression molding versus the mixture not compression molded | SMILES
1 | low | – | CC(C)N(CCCCOCC(=O)NS(C)(=O)=O)c1cnc(-c2ccccc2)c(-c2ccccc2)n1 [Compound (I), 2-{4-[N-(5,6-diphenylpyradin-2-yl)-N-isopropylamino]butyloxy}-N-(methylsulfonyl)acetamide]
2 | – | substantially equivalent | CC(=O)Nc1ccc(O)cc1 [acetaminophen]
3 | – | substantially equivalent | COc1ccc2c(c1)c(CC(=O)O)c(C)n2C(=O)c1ccc(Cl)cc1 [indomethacin]
4 | – | substantially equivalent | CCN(CC)C(=O)Nc1ccc(OCC(O)CNC(C)(C)C)c(C(C)=O)c1 (stereo not shown) [celiprolol hydrochloride]
